Assay results reported in article PMC6566077 (Chemical Science, 2019).
Converted amounts (≈) assume the structure as drawn. Read-outs that look alike come from different tables or passages of the source.

Tests used:
[1] = type: binding; conditions: for Kd: BLI, steady-state model, boronic acid functionalised sensor; for BLI binding to boronic acid functionalised sensor: components 0-100 µg/mL
A549 cells [2] = assay: Cytotoxicity assay (resazurin, 24 h); conditions: 24 h exposure, viability by resazurin
Pseudomonas putida = assay: microbe, parasite or virus in culture; type: cell-based
[3] = system: Mycobacterium tuberculosis H37Rv; assay: Minimum bactericidal concentration (MBC), CFU plating; type: cell-based; conditions: actively growing M. tuberculosis H37Rv, lowest concentration with no CFUs
Mycobacterium smegmatis = assay: microbe, parasite or virus in culture; type: cell-based, Mycobacterium smegmatis MC2155; conditions: for MIC: Mycolicibacterium smegmatis, read-out: MIC Mycobacteria, Mycobacterium smegmatis
M. tuberculosis H37Rv [4] = type: cell-based, Mycobacterium tuberculosis H37Rv; conditions: for Outcome, interaction profile with Meropenem / ΣFIC, interaction profile with Meropenem: M. tuberculosis H37Rv, checkerboard; for Interaction with meropenem in checkerboard assay (words, Figure S7): representative checkerboard images
[5] = system: ConA mediated agglutination of ovine blood; type: cell-based
Caco-2 cells = assay: Cytotoxicity assay (resazurin, 24 h); type: cell-based, human; conditions: 24 h exposure, viability by resazurin
Escherichia coli = assay: microbe, parasite or virus in culture; type: cell-based, Escherichia coli (Top 10)
Haemolysis assay = type: cell-based; conditions: sheep, ovine red blood cells, versus 100% lysis with lysis buffer
Protocol: (§1) Following incubation for 24 hours at
(§2) at 570 nm (BioTek Synergy HT microplate reader). All assays were undertaken with 3 independent experimental
(§3) Two-fold serial dilutions were then carried out diluting
(§4) 100 μL of ovine blood was
(§5) HT Microplate Reader). […] All assays
(§6) were undertaken with 3 independent experimental repeats.
(§7) DMSO compounds for compounds 3, 6 and 8.
(§8) Following addition of the
(§9) red colouring across whole well = agglutination). All assays were undertaken with three independent experimental

M. tuberculosis H37Rv [6] = type: cell-based, Mycobacterium tuberculosis H37Rv; conditions: checkerboard
[7] = system: Mycobacterium tuberculosis; assay: microbe, parasite or virus in culture; type: cell-based, Mycobacterium tuberculosis H37Rv
Jurkat E6.1 cells = assay: Cytotoxicity assay (resazurin, 24 h); type: cell-based, human; conditions: 24 h exposure, viability by resazurin
Mycobacterium bovis BCG = assay: microbe, parasite or virus in culture; type: cell-based; conditions: for MIC: Mycobacterium tuberculosis variant bovis BCG, BCG, read-out: MIC Mycobacteria, Mycobacterium bovis BCG
A549 cells [8] = system: A549 cells
ovine red blood cells = assay: Haemolysis assay; type: cell-based; conditions: 1 hour, tested at 12.5 mM due to solubility issues
Protocol: as §1, §2, §3, §4, §5, §6, §7, §8, §9

[9] = Pseudomonas putida; read-out: MIC Gram-negative, Pseudomonas putida
[10] = Escherichia coli; read-out: MIC Gram-negative, Escherichia coli
[11] = Mycobacterium tuberculosis; M. tuberculosis H37Rv, compound alone, REMA checkerboard (Table S3); read-out: MIC
[12] = Mycobacterium tuberculosis; read-out: MIC Mycobacteria, Mycobacterium tuberculosis

Compound: Trehalose Monomycolate [TMM]
- Kd ([1]; read-out: Kd): 12 µM
- BLI binding to boronic acid functionalised sensor [1]: interacted strongly

Compound: O=C(NCCCOCCOCCOCCCNC(=O)c1cccc(B(O)O)c1)c1cccc(B(O)O)c1 [Compound 6, N,N'-(4,7,10-trioxa-1,13-tridecanediamine)bis(3-phenylboronic acid)amide]
- A549 (MIC99) (A549 cells [2]): 25 mM
- MIC (Pseudomonas putida; [9]): > 25 mM
- MBC [3]: 6.25 mM (≈ 3230 µg/mL)
- MIC (Mycobacterium smegmatis): 3.13 mM (≈ 1620 µg/mL)
- Outcome, interaction profile with Meropenem (M. tuberculosis H37Rv [4]): Additive (values in between correspond to additivity)
- ΣFIC, interaction profile with Meropenem (M. tuberculosis H37Rv [4]): 0.625
- Interaction with meropenem in checkerboard assay (words, Figure S7) (M. tuberculosis H37Rv [4]): additivity
- ConA agglutination [5]: No inhibition
- Caco-2 (MIC99) (Caco-2 cells): 25 mM
- MIC (Escherichia coli; [10]): > 25 mM
- hemolysis at 1 h (Haemolysis assay): 0%
- Outcome, interaction profile with Rifampicin (M. tuberculosis H37Rv [6]): Additive (values in between correspond to additivity)
- ΣFIC, interaction profile with Rifampicin (M. tuberculosis H37Rv [6]): 2
- MIC [7, 11]: 1.56 mM
- MIC [7, 12]: 1.56 to 3.13 mM (≈ 805 to 1620 µg/mL)
- Jurkat (MIC99) (Jurkat E6.1 cells): 25 mM
- MIC (Mycobacterium bovis BCG): 0.78 to 1.56 mM (≈ 403 to 805 µg/mL)

Compound: Lipoarabinomannan [LAM]
- Kd [1]: 41.5 μg mL^–1
- BLI binding to boronic acid functionalised sensor [1]: interacted strongly

Compound: O=C(NCCNC(=O)c1cccc(B(O)O)c1)c1cccc(B(O)O)c1 [Compound 4, N,N'-(ethylenediamine)bis(3-phenylboronic acid)amide]
- A549 (MIC99) (A549 cells [2]): 25 mM
- MIC (Pseudomonas putida; [9]): > 25 mM
- MBC [3]: 6.25 mM (≈ 2220 µg/mL)
- MIC (Mycobacterium smegmatis): 3.13 mM (≈ 1110 µg/mL)
- Outcome, interaction profile with Meropenem (M. tuberculosis H37Rv [4]): Additive (values in between correspond to additivity)
- ΣFIC, interaction profile with Meropenem (M. tuberculosis H37Rv [4]): 1
- ConA agglutination [5]: No inhibition
- Caco-2 (MIC99) (Caco-2 cells): 50 mM
- MIC (Escherichia coli; [10]): > 25 mM
- hemolysis at 1 h (Haemolysis assay): 0%
- Outcome, interaction profile with Rifampicin (M. tuberculosis H37Rv [6]): Additive (values in between correspond to additivity)
- ΣFIC, interaction profile with Rifampicin (M. tuberculosis H37Rv [6]): 2
- MIC [7, 11]: 3.13 mM
- MIC [7, 12]: 1.56 to 3.13 mM (≈ 555 to 1110 µg/mL)
- Jurkat (MIC99) (Jurkat E6.1 cells): 12.5 mM
- MIC (Mycobacterium bovis BCG): 0.78 mM (≈ 278 µg/mL)

Compound: Galactan [reference compound]
- BLI binding to boronic acid functionalised sensor [1]: no binding was observed

Compound: Phosphatidylinositol Mannosides 1 & 2 [PIM 1 + 2]
- BLI binding to boronic acid functionalised sensor [1]: very weak binding

Compound: O=C(O)c1cccc(B(O)O)c1 [Compound 2, reference compound]
- A549 (MIC99) (A549 cells [2]): > 25 mM
- MIC (Pseudomonas putida; [9]): 12.5 to 25 mM (≈ 2070 to 4150 µg/mL)
- MIC (Mycobacterium smegmatis): 12.5 to 25 mM (≈ 2070 to 4150 µg/mL)
- MIC (Escherichia coli; [10]): > 25 mM
- hemolysis at 1 h (Haemolysis assay): 4.5%
- MIC [7, 12]: 6.25 to 12.5 mM (≈ 1040 to 2070 µg/mL)
- MIC (Mycobacterium bovis BCG): 12.5 mM (≈ 2070 µg/mL)

Compound: O=C(O)c1ccc(B(O)O)cc1 [Compound 3, reference compound]
- A549 (MIC99) (A549 cells [2]): > 25 mM
- MIC (Pseudomonas putida; Pseudomonas putida, read-out: MIC Gram-negative, Pseudomonas putida): 25 mM (≈ 4150 µg/mL)
- MIC (Mycobacterium smegmatis): 25 mM (≈ 4150 µg/mL)
- MIC (Escherichia coli; Escherichia coli, read-out: MIC Gram-negative, Escherichia coli): > 25 mM
- hemolysis at 1 h (Haemolysis assay): 0.9%
- MIC ([7]; Mycobacterium tuberculosis, read-out: MIC Mycobacteria, Mycobacterium tuberculosis): 6.25 mM (≈ 1040 µg/mL)
- MIC (Mycobacterium bovis BCG): 6.25 mM (≈ 1040 µg/mL)

Compound: Lipomannan [LM]
- BLI binding to boronic acid functionalised sensor [1]: interacted strongly

Compound: Trehalose Dimycolate [TDM]
- Kd ([1]; read-out: Kd): 4 µM
- BLI binding to boronic acid functionalised sensor [1]: interacted strongly

Compound: CC1(C)[C@H](C(=O)O)N2C(=O)C[C@H]2S1(=O)=O [Sulbactam, reference compound]
- Outcome, interaction profile with Meropenem (M. tuberculosis H37Rv [4]): Synergistic (ΣFICs of ≤0.5 designate synergistic activity)
- ΣFIC, interaction profile with Meropenem (M. tuberculosis H37Rv [4]): 0.313
- ΣFIC, interaction profile with Meropenem (M. tuberculosis H37Rv [4]; listed as sulbactam): 0.3
- Interaction with meropenem in checkerboard assay (words, Figure S7) (M. tuberculosis H37Rv [4]): synergistic activity
- MIC [7, 11]: 0.134 mM

Compound: monosialodihexosylganglioside [GM3, reference compound]
- BLI binding to boronic acid functionalised sensor [1]: no detectable binding

Compound: Phosphatidylinositol Mannoside 6 [PIM6]
- BLI binding to boronic acid functionalised sensor [1]: weak binding affinity

Compound: mycolic acid methyl esters [MAMEs]
- BLI binding to boronic acid functionalised sensor [1]: no detectable binding

Compound: O=C(NCCOCCOCCNC(=O)c1cccc(B(O)O)c1)c1cccc(B(O)O)c1 [Compound 5, N,N'-(2,2-(ethylenedioxy)bis(ethylamine))bis(3-phenylboronic acid)amide]
- A549 (MIC99) (A549 cells [2]): 25 mM
- MIC (Pseudomonas putida; [9]): > 25 mM
- MBC [3]: 6.25 mM (≈ 2780 µg/mL)
- MIC (Mycobacterium smegmatis): 3.13 mM (≈ 1390 µg/mL)
- Outcome, interaction profile with Meropenem (M. tuberculosis H37Rv [4]): Additive (values in between correspond to additivity)
- ΣFIC, interaction profile with Meropenem (M. tuberculosis H37Rv [4]): 0.625
- ConA agglutination [5]: No inhibition
- Caco-2 (MIC99) (Caco-2 cells): 50 mM
- MIC (Escherichia coli; [10]): > 25 mM
- hemolysis at 1 h (Haemolysis assay): 0%
- Outcome, interaction profile with Rifampicin (M. tuberculosis H37Rv [6]): Additive (values in between correspond to additivity)
- ΣFIC, interaction profile with Rifampicin (M. tuberculosis H37Rv [6]): 2
- MIC [7, 11]: 3.13 mM
- MIC [7, 12]: 1.56 to 3.13 mM (≈ 693 to 1390 µg/mL)
- Jurkat (MIC99) (Jurkat E6.1 cells): 12.5 mM
- MIC (Mycobacterium bovis BCG): 0.78 to 1.56 mM (≈ 346 to 693 µg/mL)

Compound: OB(O)c1ccccc1 [Compound 1, reference compound]
- A549 (MIC99) (A549 cells [2]): 50 mM
- MIC (Pseudomonas putida; [9]): 12.5 to 25 mM (≈ 1520 to 3050 µg/mL)
- MIC (Mycobacterium smegmatis): 12.5 to 25 mM (≈ 1520 to 3050 µg/mL)
- MIC (Escherichia coli; [10]): 25 mM (≈ 3050 µg/mL)
- hemolysis at 1 h (Haemolysis assay): 0%
- MIC [7, 12]: 6.25 to 12.5 mM (≈ 762 to 1520 µg/mL)
- MIC (Mycobacterium bovis BCG): 3.13 mM (≈ 382 µg/mL)

Compound: O=C(CCN(CCOCCOCCN(CCC(=O)NCCOCCOCCNC(=O)c1cccc(B(O)O)c1)CCC(=O)NCCOCCOCCNC(=O)c1cccc(B(O)O)c1)CCC(=O)NCCOCCOCCNC(=O)c1cccc(B(O)O)c1)NCCOCCOCCNC(=O)c1cccc(B(O)O)c1 [Compound 8, 2,2’-(Ethylenedioxy)bis(ethylamine) G1 PAMAM tetra(3-phenylboronic acid)amide dendrimer]
- MIC Gram-negative, Pseudomonas putida (Pseudomonas putida): >25 mM
- MIC Mycobacteria, Mycobacterium smegmatis (Mycobacterium smegmatis): 0.78 mM (≈ 1210 µg/mL)
- A549 (MIC99) (A549 cells [8]): > 25 mM
- MIC Gram-negative, Escherichia coli (Escherichia coli): >25 mM
- Haemolysis (%) (ovine red blood cells): 4.5%
- MIC Mycobacteria, Mycobacterium tuberculosis [7]: 0.78 to 1.56 mM
- MIC against Mtb [7]: 0.78 mM (≈ 1210 µg/mL)
- MIC Mycobacteria, Mycobacterium bovis BCG (Mycobacterium bovis BCG; resazurin reduction microtitre plate assay): 1.56 mM (≈ 2420 µg/mL)

Compound: O=C(NCCOCCOCCOCCOCCOCCOCCOCCOCCOCCOCCOCCOCCOCCOCCOCCOCCOCCOCCOCCOCCOCCOCCOCCNC(=O)c1cccc(B(O)O)c1)c1cccc(B(O)O)c1 [Compound 7, N,N'-(polyoxyethylenebis(amine))bis(3-phenylboronic acid)amide]
- MIC (Pseudomonas putida; [9]): > 25 mM
- MIC (Mycobacterium smegmatis): 25 mM (≈ 34200 µg/mL)
- MIC (Escherichia coli; [10]): > 25 mM
- MIC (Mycobacterium bovis BCG): > 25 mM

Compound: lipopolysaccharide [LPS, reference compound]
- BLI binding to boronic acid functionalised sensor [1]: weak binding

Compound: dextran [reference compound]
- BLI binding to boronic acid functionalised sensor [1]: no binding was observed
